33 compounds from patent publication US11912682B2, “Isoindolinone compounds” (Monte Rosa Therapeutics, Inc., priority 2021, dated 2024) can be followed below.

Assay [1] has as its target T1, GSPT1 (Homo sapiens (Human), UniProt P15170+Q96SW2). Kind of assay: immunofluorescence assay for GSPT1 degradation in CAL-51 cells (Example 10). The note with it: read-out: IF Class (GSPT1 degradation DC50). The format is cell-based. The procedure:
The representative compounds were tested in an immunofluorescence assay for their activity to degrade GSPT1. […] Compounds were stored at 10 mM DMSO stocks. […] Cells were subsequently rinsed with PBS and fixed in 10% Formalin solution (50 μl, Sigma HT5011)) for 20 mins at room temperature. […] Following three further PBS washes, 50 μL blocking buffer (1% BSA, Sigma A4503, in PBS) was added for 45 min for signal-to noise reduction. Primary antibody (human GSPT1, Sigma HPA052488) was diluted in blocking buffer (dil.1/300, 35 μL/well) and incubated with the cells overnight at 4° C. […] After three final PBS washes, samples were conserved in 100 μL PBS in the dark, until measurement. Image acquisition was performed on the Operetta High-Content Imager (Perkin-Elmer). […] For the determination of GSPT1 DC50 values, a custom algorithm implemented in the PerkinElmer image analysis software Harmony-Acapella® was developed. After user-defined setting of adjustment parameters, the analysis was run identically without human intervention for all image fields. DAPI staining of the nuclei was used to determine the location of cells using standard nuclei detection modules. Segmentation artifacts were removed by threshold-based filters for area, roundness and intensity. The outline of the cells was determined analogously from the sum of the normalized, smoothed DAPI and Actin channel, starting from each nucleus. […] GSPT1 degradation (DC50) was calculated after normalization to controls and data import in CDD vault Database, using non-linear regression.

In assay [2] the target is Full length wild-type cereblon CRBN (Homo sapiens (Human), UniProt Q96SW2). Kind of assay: fluorescence polarization (FP) assay, cereblon binding. The essentials: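 Full-length wild-type CRBN (80.0 nM as dispensed) preincubated 30 min at room temperature with compound in HEPES pH 8.0, NaCl, TCEP, 0.05% Tween 20.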
Assay [3] has as its target T1, GSPT1. The assay can be described thus: immunofluorescence assay for GSPT1 degradation in CAL-51 cells (Example 4). In kind it is cell-based. The essentials: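 CAL-51 cells on fibronectin-coated plates were treated 6 h with serial dilutions (30 μM to 0.1 nM), then fixed and immunostained for GSPT1 with DAPI and phalloidin counterstains. Per-cell mean GSPT1 intensity from high-content imaging, normalized to controls; DC50 by non-linear regression.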

The mark [4] stands for this setting: 6 hours, read-out: Activity for GSPT1 degradation, Code (DC50).
The mark [5] stands for this setting: GSPT1 degradation, read-out: DC50 value.

Read-outs that look alike come from different tables or passages of the source.

Chain of Full length wild-type cereblon CRBN (Q96SW2 whole entry): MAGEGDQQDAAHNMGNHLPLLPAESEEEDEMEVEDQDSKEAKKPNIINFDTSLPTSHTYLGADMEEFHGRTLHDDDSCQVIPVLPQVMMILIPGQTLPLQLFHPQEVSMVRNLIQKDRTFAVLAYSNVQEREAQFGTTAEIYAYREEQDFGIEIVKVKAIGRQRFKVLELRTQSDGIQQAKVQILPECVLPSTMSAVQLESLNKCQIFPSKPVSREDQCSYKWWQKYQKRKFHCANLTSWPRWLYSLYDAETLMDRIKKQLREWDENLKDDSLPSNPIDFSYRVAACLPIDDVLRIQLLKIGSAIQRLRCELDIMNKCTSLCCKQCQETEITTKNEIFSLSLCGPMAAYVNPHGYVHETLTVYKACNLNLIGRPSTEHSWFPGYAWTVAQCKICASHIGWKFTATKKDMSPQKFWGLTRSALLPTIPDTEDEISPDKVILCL
T1 sequence (P15170 whole entry): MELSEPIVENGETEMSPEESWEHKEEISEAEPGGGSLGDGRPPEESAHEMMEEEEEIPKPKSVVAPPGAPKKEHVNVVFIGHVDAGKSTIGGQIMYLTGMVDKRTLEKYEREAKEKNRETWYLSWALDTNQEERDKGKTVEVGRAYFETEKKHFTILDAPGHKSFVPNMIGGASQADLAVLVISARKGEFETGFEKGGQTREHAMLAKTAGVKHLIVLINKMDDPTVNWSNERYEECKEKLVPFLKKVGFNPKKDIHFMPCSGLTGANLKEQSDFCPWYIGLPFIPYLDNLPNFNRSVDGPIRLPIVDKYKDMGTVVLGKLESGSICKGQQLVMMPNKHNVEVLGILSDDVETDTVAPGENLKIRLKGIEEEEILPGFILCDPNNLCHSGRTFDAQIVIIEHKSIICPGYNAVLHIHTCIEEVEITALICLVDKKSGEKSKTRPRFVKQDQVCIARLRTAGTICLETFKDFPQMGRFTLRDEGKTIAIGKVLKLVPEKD
T1 sequence (Q96SW2 whole entry): as the sequence (Q96SW2 whole entry) above
T1 sequence (Q16531 2-1140 partner): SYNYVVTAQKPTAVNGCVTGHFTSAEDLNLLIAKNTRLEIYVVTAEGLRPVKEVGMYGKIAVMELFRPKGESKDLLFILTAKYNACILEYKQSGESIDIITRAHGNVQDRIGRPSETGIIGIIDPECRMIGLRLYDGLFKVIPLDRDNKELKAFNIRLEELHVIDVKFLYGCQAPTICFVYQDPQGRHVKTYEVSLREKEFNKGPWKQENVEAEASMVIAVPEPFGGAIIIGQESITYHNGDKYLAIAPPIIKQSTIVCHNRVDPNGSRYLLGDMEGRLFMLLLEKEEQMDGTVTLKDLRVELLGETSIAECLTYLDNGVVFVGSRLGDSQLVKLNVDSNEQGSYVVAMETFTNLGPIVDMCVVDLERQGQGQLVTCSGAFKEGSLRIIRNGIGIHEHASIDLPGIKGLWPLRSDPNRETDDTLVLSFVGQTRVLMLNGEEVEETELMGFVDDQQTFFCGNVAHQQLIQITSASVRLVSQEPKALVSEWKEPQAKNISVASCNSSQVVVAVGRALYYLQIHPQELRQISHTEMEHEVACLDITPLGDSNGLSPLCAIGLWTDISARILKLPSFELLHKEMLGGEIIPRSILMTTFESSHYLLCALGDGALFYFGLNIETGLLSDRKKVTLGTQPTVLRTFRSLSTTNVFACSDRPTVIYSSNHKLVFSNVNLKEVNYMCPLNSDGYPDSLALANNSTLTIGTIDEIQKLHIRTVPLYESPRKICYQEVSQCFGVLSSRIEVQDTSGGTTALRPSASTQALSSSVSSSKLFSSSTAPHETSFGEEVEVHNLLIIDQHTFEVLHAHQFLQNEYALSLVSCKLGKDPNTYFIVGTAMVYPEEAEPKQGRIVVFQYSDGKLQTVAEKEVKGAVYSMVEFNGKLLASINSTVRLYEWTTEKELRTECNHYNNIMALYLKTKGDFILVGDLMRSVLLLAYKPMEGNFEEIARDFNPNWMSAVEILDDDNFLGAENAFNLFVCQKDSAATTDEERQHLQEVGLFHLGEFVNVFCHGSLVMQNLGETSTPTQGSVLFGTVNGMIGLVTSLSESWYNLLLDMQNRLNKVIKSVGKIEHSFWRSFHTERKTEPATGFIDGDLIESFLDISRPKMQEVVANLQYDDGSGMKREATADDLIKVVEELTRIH

Usually DC50 stands for the midpoint of the concentration-degradation curve. As for `Cc1cc(F)c(NC(=O)OCc2ccc3c(c2)C(=O)N(C2CCC(=O)NC2=O)C3)cc1Br` (centres unmarked) [Compound 197, (2-(2,6-dioxopiperidin-3-yl)-3-oxoisoindolin-5-yl)methyl (5-bromo-2-fluoro-4-methylphenyl)carbamate], the DC50 in assay [1] (CAL-51 cells, 6 h) was in the range of 30 to 300 nM.

In the case of `CC(C)(C)Oc1ccc(F)c(NC(=O)OCc2ccc3c(c2)C(=O)N(C2CCC(=O)NC2=O)C3)c1` (centres unmarked) [Compound 222, (2-(2,6-dioxopiperidin-3-yl)-3-oxoisoindolin-5-yl)methyl (5-(tert-butoxy)-2-fluorophenyl)carbamate], the DC50 in assay [1] (CAL-51 cells, 6 h) was in the range of 30 to 300 nM.

With `O=C1CCC(N2Cc3ccc(COC(=O)Nc4ccc(C(O)C(F)(F)F)nc4)cc3C2=O)C(=O)N1` (centres unmarked) [Compound 238], the DC50 in assay [1] (CAL-51 cells, 6 h) was greater than 300 nM.

On to `O=C1CCC(N2Cc3ccc(COC(=O)NC45CC(C(F)F)(C4)C5)cc3C2=O)C(=O)N1` (centres unmarked) [Compound 219, (2-(2,6-dioxopiperidin-3-yl)-3-oxoisoindolin-5-yl)methyl (3-(difluoromethyl)bicyclo[1.1.1]pentan-1-yl) carbamate], for which, in assay [1] (CAL-51 cells, 6 h), the DC50 is greater than 300 nM.

Turning to `Cc1cc(F)c(NC(=O)OCc2ccc3c(c2)C(=O)N(C2CCC(=O)NC2=O)C3)c(F)c1` (centres unmarked) [Compound 166, (2-(2,6-dioxopiperidin-3-yl)-3-oxoisoindolin-5-yl)methyl (2,6-difluoro-4-methylphenyl)carbamate], in assay [1] (CAL-51 cells, 6 h), the DC50 was greater than 300 nM.

Consider `O=C1CCC(N2Cc3ccc(COC(=O)Nc4cc(C5CC5)ccc4F)cc3C2=O)C(=O)N1` (centres unmarked) [Compound 207, (2-(2,6-dioxopiperidin-3-yl)-3-oxoisoindolin-5-yl)methyl (5-cyclopropyl-2-fluorophenyl) carbamate], for which the DC50 in assay [1] (CAL-51 cells, 6 h) fell in the range of 30 to 300 nM.

For `O=C1CCC(N2Cc3ccc(COC(=O)Nc4ccc(C5CCC5)cc4F)cc3C2=O)C(=O)N1` (centres unmarked) [Compound 164, (2-(2,6-dioxopiperidin-3-yl)-3-oxoisoindolin-5-yl)methyl (4-cyclobutyl-2-fluorophenyl)carbamate], the DC50 in assay [1] (CAL-51 cells, 6 h) is greater than 300 nM.

As to `Cc1cc(F)c(NC(=O)OCc2ccc3c(c2)C(=O)N(C2CCC(=O)NC2=O)C3)cc1F` (centres unmarked) [Compound 213, (2-(2,6-dioxopiperidin-3-yl)-3-oxoisoindolin-5-yl)methyl (2,5-difluoro-4-methylphenyl)carbamate], in assay [1] (CAL-51 cells, 6 h), the DC50 is greater than 300 nM.

As for `Cc1cc(F)c(NC(=O)OCc2ccc3c(c2)C(=O)N(C2CCC(=O)NC2=O)C3)c(F)c1Cl` (centres unmarked) [Compound 211, (2-(2,6-dioxopiperidin-3-yl)-3-oxoisoindolin-5-yl)methyl (3-chloro-2,6-difluoro-4-methylphenyl)carbamate], the DC50 in assay [1] (CAL-51 cells, 6 h) lay in the range of 30 to 300 nM.

Consider `CCc1cccc(NC(=O)OCc2ccc3c(c2)C(=O)N(C2CCC(=O)NC2=O)C3)c1` (centres unmarked) [Compound 220, (2-(2,6-dioxopiperidin-3-yl)-3-oxoisoindolin-5-yl)methyl (3-ethylphenyl)carbamate], for which, in assay [1] (CAL-51 cells, 6 h), the DC50 is less than 30 nM.

With `Cc1cc(NC(=O)OCc2ccc3c(c2)C(=O)N(C2CCC(=O)NC2=O)C3)cc(C#N)c1C` (centres unmarked) [Compound 186], in assay [1] (CAL-51 cells, 6 h), the DC50 was less than 30 nM.

As for `Cc1cc(F)c(NC(=O)OCc2ccc3c(c2)C(=O)N(C2CCC(=O)NC2=O)C3)cc1OC(F)F` (centres unmarked) [Compound 201, (2-(2,6-dioxopiperidin-3-yl)-3-oxoisoindolin-5-yl) methyl (5-(difluoromethoxy)-2-fluoro-4-methylphenyl)carbamate], in assay [1] (CAL-51 cells, 6 h), the DC50 is 30 to 300 nM.

For `O=C1CCC(N2Cc3ccc(COC(=O)NC45CC(N6CCCCC6)(C4)C5)cc3C2=O)C(=O)N1` (centres unmarked) [Compound 198], the DC50 in assay [1] (CAL-51 cells, 6 h) was greater than 300 nM.

Consider `O=C1CCC(N2Cc3ccc(COC(=O)Nc4cccc5c4OCC5)cc3C2=O)C(=O)N1` (centres unmarked) [Compound 173], for which, in assay [1] (CAL-51 cells, 6 h), the DC50 was greater than 300 nM.

For `O=C1CCC(N2Cc3ccc(COC(=O)Nc4cc(Cl)ccc4F)cc3C2=O)C(=O)N1` (centres unmarked) [Compound 163, (2-(2,6-dioxopiperidin-3-yl)-3-oxoisoindolin-5-yl)methyl (5-chloro-2-fluorophenyl)carbamate], in assay [1] (CAL-51 cells, 6 h), the DC50 is greater than 300 nM.

`Cc1cc(NC(=O)OCc2ccc3c(c2)C(=O)N(C2CCC(=O)NC2=O)C3)cc(Cl)c1C#N` (centres unmarked) [Compound 177, (2-(2,6-diox opiperidin-3-yl)-3-oxoisoindolin-5-yl)methyl(3-chloro-4-cyano-5-methylphenyl)carbamate]: the DC50 in assay [1] fell in the range of 30 to 300 nM.

Regarding `Cc1cc(F)c(NC(=O)OCc2ccc3c(c2)C(=O)N(C2CCC(=O)NC2=O)C3)cc1C(F)(F)F` (centres unmarked) [Compound 233], the DC50 in assay [1] (CAL-51 cells, 6 h) lay in the range of 30 to 300 nM.

With `Cc1cc(F)c(NC(=O)OCc2ccc3c(c2)C(=O)N(C2CCC(=O)NC2=O)C3)cc1OC(C)C` (centres unmarked) [Compound 230, (2-(2,6-dioxopiperidin-3-yl)-3-oxoisoindolin-5-yl)methyl (2-fluoro-5-isopropoxy-4-methylphenyl)carbamate], the DC50 in assay [1] (CAL-51 cells, 6 h) is less than 30 nM.

As for `CC(C)(C)[C@H]1C[C@H](NC(=O)OCc2ccc3c(c2)C(=O)N(C2CCC(=O)NC2=O)C3)C1` (stereo partly drawn) [Compound 185, trans-(2-(2,6-dioxopiperidin-3-yl)-3-oxoisoindolin-5-yl)methyl ((1s,3s)-3-(tert-butyl)cyclobutyl)carbamate], the DC50 in assay [1] (CAL-51 cells, 6 h) is greater than 300 nM.

With `O=C1CCC(N2Cc3ccc(COC(=O)NC45CC(C4)C5)cc3C2=O)C(=O)N1` (centres unmarked) [Compound 193, (2-(2,6-dioxopiperidin-3-yl)-3-oxoisoindolin-5-yl)methyl bicyclo[1.1.1]pentan-1-ylcarbamate], the DC50 in assay [1] (CAL-51 cells, 6 h) was greater than 300 nM.

As for `O=C1CCC(N2Cc3ccc(COC(=O)Nc4ccc(C(O)C(F)(F)F)cc4)cc3C2=O)C(=O)N1` (centres unmarked) [Compound 209, (2-(2,6-dioxopiperidin-3-yl)-3-oxoisoindolin-5-yl)methyl (4-(2,2,2-trifluoro-1-hydroxyethyl)phenyl) carbamate], the DC50 in assay [1] (CAL-51 cells, 6 h) was greater than 300 nM.

With `CC(F)(F)c1ccc(F)c(NC(=O)OCc2ccc3c(c2)C(=O)N(C2CCC(=O)NC2=O)C3)c1` (centres unmarked) [Compound 234], the DC50 in assay [1] (CAL-51 cells, 6 h) is greater than 300 nM.

Turning to `COC(=O)C12CC(NC(=O)OCc3ccc4c(c3)C(=O)N(C3CCC(=O)NC3=O)C4)(C1)C2` (centres unmarked) [Compound 203, methyl 3-((((2-(2,6-dioxopiperidin-3-yl)-3-oxoisoindolin-5-yl)methoxy)carbonyl)amino)bicyclo[1.1.1]pentane-1-carboxylate], the DC50 in assay [1] (CAL-51 cells, 6 h) was greater than 300 nM.

As for `C[C@@H]1CCCN1c1ccc(NC(=O)OCc2ccc3c(c2)C(=O)N(C2CCC(=O)NC2=O)C3)nc1` (some centres unmarked) [Compound 192], the DC50 in assay [1] (CAL-51 cells, 6 h) was in the range of 30 to 300 nM.

As to `O=C1CCC(N2Cc3ccc(COC(=O)NC45CC(N6CCOCC6)(C4)C5)cc3C2=O)C(=O)N1` (centres unmarked) [Compound 215, (2-(2,6-dioxopiperidin-3-yl)-3-oxoisoindolin-5-yl)methyl (3-morpholinobicyclo[1.1.1]pentan-1-yl)carbamate], the DC50 in assay [1] (CAL-51 cells, 6 h) was greater than 300 nM.

For the compound `Cc1cc2c(c(NC(=O)OCc3ccc4c(c3)C(=O)N(C3CCC(=O)NC3=O)C4)c1)OCC2` (centres unmarked) [Compound 182], the DC50 in assay [1] (CAL-51 cells, 6 h) was greater than 300 nM.

One may read the IC50 as the point on the concentration scale where inhibition reaches its midpoint. Regarding `Cc1ccc(NC(=O)OCc2ccc3c(c2)C(=O)N(C2CCC(=O)NC2=O)C3)cc1OC(F)F` (centres unmarked) [Compound 24], the IC50 in assay [2] (read-out: IC50 value) is less than 1100 nM. The DC50 in assay [3] (setting [4]) is less than 30 nM; in assay [3] (setting [5]) it was no more than 30 nM.

Take `O=C1CCC(N2Cc3ccc(COC(=O)Nc4ccc5c(c4)CC(F)(F)O5)cc3C2=O)C(=O)N1` (centres unmarked) [Compound 113]: in assay [2] (read-out: rFP IC50), the IC50 is less than 500 nM. The DC50 in assay [3] (setting [4]) was in the range of 30 to 300 nM.

Take `CC1CCCN1c1ccc(NC(=O)OCc2ccc3c(c2)C(=O)N(C2CCC(=O)NC2=O)C3)cn1` (centres unmarked) [Compound 74]: the IC50 in assay [2] (read-out: rFP IC50) is less than 500 nM. Further, the DC50 is less than 30 nM in assay [3] (setting [4]) and no more than 30 nM in assay [3] (setting [5]).

With `O=C1CCC(N2Cc3ccc(COC(=O)Nc4ccc(C5CC5(F)F)cc4)cc3C2=O)C(=O)N1` (centres unmarked) [Compound 101], the IC50 in assay [2] (read-out: rFP IC50) was greater than 1700 nM. Moreover, in assay [3] (setting [4]), the 50% degradation concentration (DC50) was in the range of 30 to 300 nM.

Consider `O=C1CCC(N2Cc3ccc(COC(=O)Nc4cc(F)cc(OC(F)(F)F)c4)cc3C2=O)C(=O)N1` (centres unmarked) [Compound 57], for which, in assay [2] (read-out: rFP IC50), the half-inhibitory concentration (IC50) was greater than 1700 nM. Besides, the figures for the DC50 in assay [3] (setting [4]) and in assay [3] (setting [5]) were less than 30 nM and no more than 30 nM, respectively.

`COc1cc(NC(=O)OCc2ccc3c(c2)C(=O)N(C2CCC(=O)NC2=O)C3)cnc1C` (centres unmarked) [Compound 51]: the IC50 in assay [2] (read-out: IC50 value) is less than 1100 nM. The DC50 in assay [3] (setting [4]) was 30 to 300 nM.

`CC1(c2ccc(NC(=O)OCc3ccc4c(c3)C(=O)N(C3CCC(=O)NC3=O)C4)cn2)CC1` (centres unmarked) [Compound 152, (2-(2,6-dioxopiperidin-3-yl)-3-oxoisoindolin-5-yl)methyl (6-(1-methylcyclopropyl)pyridin-3-yl)carbamate]: the IC50 in assay [2] (read-out: rFP IC50) was less than 500 nM. The DC50 in assay [3] (setting [4]) is less than 30 nM; in assay [3] (setting [5]) it was no more than 30 nM.
